The source of these data is PMC7178854 (Journal of Enzyme Inhibition and Medicinal Chemistry, 2020).

Assay [1] concerns the target T1, ASFV protease (pS273R) (African swine fever virus BA71V, UniProt Q00946).
T1 construct: gene Ba71V-111
In kind it is biochemical.

For assay [2], the target named is T1, ASFV protease (pS273R). Kind of assay: biochemical.

T1 sequence (Q00946 whole entry, looked up): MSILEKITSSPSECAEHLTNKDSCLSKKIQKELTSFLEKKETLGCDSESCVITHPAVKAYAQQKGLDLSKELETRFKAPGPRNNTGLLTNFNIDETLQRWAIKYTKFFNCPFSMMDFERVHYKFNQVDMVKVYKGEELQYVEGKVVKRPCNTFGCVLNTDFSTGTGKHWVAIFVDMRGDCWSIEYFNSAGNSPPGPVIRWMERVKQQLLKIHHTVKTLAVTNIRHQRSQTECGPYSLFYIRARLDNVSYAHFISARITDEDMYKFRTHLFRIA

For `O=c1c(O)c(-c2ccc(O)cc2)oc2c(O)c(O)cc(O)c12` [herbacetin], the “RFU at 40 μM” value at ASFV protease (pS273R) [1] was “Its activity, however, is similar to those of herbacetin, kaempferol and morin”.

As to `O=c1c(O)c(-c2ccc(O)cc2)oc2cc(O)cc(O)c12` [kaempferol], the “RFU at 40 μM” value at ASFV protease (pS273R) [1] is “Its activity, however, is similar to those of herbacetin, kaempferol and morin”.

Regarding `O=c1c(O)c(-c2ccc(O)cc2O)oc2cc(O)cc(O)c12` [morin], at ASFV protease (pS273R) [1], the “RFU at 40 μM” value was “Its activity, however, is similar to those of herbacetin, kaempferol and morin”.

By IC50 is commonly meant the point on the concentration scale where inhibition reaches its midpoint. As to `O=c1c(O)c(-c2cc(O)c(O)c(O)c2)oc2cc(O)cc(O)c12` [myricetin, 3,3′,4′,5,5′,7-Hexahydroxyflavone], half-maximal inhibition at ASFV protease (pS273R) [2] (IC50) required 8.4 µM.

At ASFV protease (pS273R) [2], `C[C@@H]1O[C@@H](Oc2c(-c3cc(O)c(O)c(O)c3)oc3cc(O)cc(O)c3c2=O)[C@H](O)[C@H](O)[C@H]1O` [myricitrin] showed an IC50 of 2.7 µM.
